# How the values were obtained:
# [1] = system: C57BL/6 mice with LPS-induced systemic inflammation; assay: Histological examination of lung specimens (H&E); assay type: in vivo, mouse; conditions: FJU-C28 5 mg/kg, LPS 7.5 mg/kg, FIG. 12A
# Method: Ten-week-old male C57BL/6 mice from BioLasco Taiwan Co., Ltd. (Taipei, Taiwan) were used in the present study. The mice were maintained under standard laboratory conditions as described in a previous study.^34 All animal procedures were approved by the Institutional Animal Care and Use Committee of Fu Jen Catholic University (IACUC approval number: A10508). We also confirmed that all experiments were performed in compliance with the ARRIVE guidelines. All surgeries were performed under anesthesia, and all efforts were made to minimize the pain and discomfort of the animals. The mice were randomly assigned to three groups: control (n=7), LPS (n=7) and LPS plus C28 (n=8). […] The detailed procedure was performed as described in a previous study.^34 The lung function values, including C chord (lung compliance), IC (inspiratory capacity), VC (vital capacity), FEV100 (forced expiratory volume at 100 ms) and FVC (forced vital capacity), were measured using a Buxco Research System. […]
# To evaluate the protective effect of FJU-C28 on lung function in mice with systemic inflammation induced by endotoxin, male C57BL/6 mice were administered LPS (7.5 mg/kg) and treated with/without FJU-C28 (5 mg/kg) for 24 hours; subsequently, lung function parameters were measured using a Buxco pulmonary function test system. […]
# RAW264.7 macrophages [2] = assay: Western blotting of LPS-stimulated macrophage lysates; assay type: cell-based, mouse
# Source text: In brief, cell lysate was separated by 10% SDS-PAGE and transferred to a PVDF membrane (Hybond™-P, Amersham, Piscataway, NJ, USA). The blots were probed with anti-p38 (Catalogue Number: 8690P), anti-p-p38 (Thr180/Tyr182; Catalogue Number: 4511P), anti-ERK44/42 (Catalogue Number: 4695P), anti-p-ERK44/42 (Thr202/Tyr204; Catalogue Number: 4370P), anti-JNK (Catalogue Number: 9258P), anti-p-JNK (Thr183/Tyr185; Catalogue Number: 4668P), anti-p65 (Catalogue Number: 8242S), anti-STAT3 (Catalogue Number: 12640S), anti-p-STAT3 (Tyr705; Catalogue Number: 9145S) and anti-RANTES (Catalogue Number: 2989S) antibodies were provided by Cell Signaling Technology, Inc. (Danvers, MA, USA). Anti-Lamin A/C (Catalogue Number: 101127) antibodies were obtained from GeneTex, Inc. (San Antonio, TX, USA). Anti-β-Actin (Catalogue Number: SC-47778) and anti-COX2 (Catalogue Number: SC-1746) antibody was obtained from Santa Cruz Biotechnology, Inc. (Dallas, Texas, USA). The anti-iNOS (Catalog Number: 610329) antibody was obtained from BD transduction Lab. (San Jose, CA, USA). Bound antibodies were visualized by […] staining (Western Lighting Plus ECL; PerkinElmer, Wellesley, MA, USA) with autoradiography using FUJI Medical X-ray film (Fuji Corporation, Kofu, Yamanashi, Japan) or a MultiGel-21 multifunctional imaging system (TOPBIO, New Taipei, Taiwan). The intensity of the western blot bands was quantified by ImageJ software. The quantitative immunoblot data were normalized to the internal control protein and are expressed as the relative ratio of the treatment group to the control. The data represent the mean±S.D. of at least three independent experiments.
# RAW264.7 macrophages [3] = assay: ELISA of cytokines in cell culture media; assay type: cell-based, mouse
# Method: RANTES (RayBiotech), IL-1β and IL-6 (eBioscience, San Diego, CA, USA) concentrations in cell culture media and mouse serum were measured using ELISA kits according to the manufacturer's instructions. The plates were measured at […] using an Epoch microplate spectrophotometer (BioTek Instruments, Winooski, VT, USA). The concentrations of RANTES, IL-1β and IL-6 in the samples were determined by standard curves.
# For identifying the potential signaling pathways which regulate the secretion of IL-6 and RANTES induced by LPS stimulation, RAW264.7 macrophages were pretreated with various kinase inhibitors for 30 min and then stimulated with/without 100 ng/ml LPS for 24 h; the cell culture media was harvested for ELISA assay. […] (FIG. 6A). To investigate whether FJU-C28 could mediate the transcriptional activity of NF-κB (p65), the translocation of NF-κB p65 was examined in LPS-stimulated macrophages.
# [4] = system: STAT3, smad3, TGF1β-induced alpha-SMA and fibronectin; assay: Immunoblot comparison of FJU-C28 with Pirfenidone; assay type: cell-based; conditions: versus Pirfenidone; FIGS. 10A-10C
# Method: Further, a comparison between FJU-C28 and FDA-approved drug Pirfenidone for effects on STAT3 inhibition, smad3 activation, TGF1β-induced alpha-SMA and fibronectin expression are conducted. The results are shown in the quantitative immunoblot data in FIGS. 10A, 10B and 10C.
# [5] = LPS-stimulated, at doses higher than 5 μM, FIG. 1D
# [6] = LPS-treated macrophages, cell culture media, FIG. 4C/4D
compound,measurement,setting,value
C=CCC1CC(Sc2ccccc2)=CC(=O)N1C(=O)C=C (stereo not drawn) [FJU-C28],alveolar structure in lung tissue,[1],sustained most of the alveolar structure
same,neutrophil infiltration in the interstitium of the lung,[1],reduced the neutrophil infiltration in the interstitium
same,LPS-induced level of p-ERK,"RAW264.7 macrophages [2]; 5 μM and 10 μM, FIG. 6A",dramatically inhibited
same,LPS-induced level of p-JNK,"RAW264.7 macrophages [2]; 5 μM and 10 μM, FIG. 6A",dramatically inhibited
same,LPS-induced level of p-p38,"RAW264.7 macrophages [2]; 5 μM and 10 μM, FIG. 6A",dramatically inhibited
same,levels of STAT3 protein,RAW264.7 macrophages [2]; FIG. 8,reducing the levels of STAT3 protein
same,LPS-induced phosphorylation of STAT3,"RAW264.7 macrophages [2]; LPS-induced RAW264.7, FIG. 6D",concentration-dependently inhibited
same,expression of COX2 (immunoblot),RAW264.7 macrophages [2]; [5],suppressed
same,expression of iNOS (immunoblot),RAW264.7 macrophages [2]; [5],suppressed
same,NF-κB (p65) in nuclear extract (translocation),"RAW264.7 macrophages [2]; LPS-stimulated, increasing dose, FIG. 6C",nuclear NF-κB (p65) was decreased
same,LPS-induced protein expression of RANTES (western blot),"RAW264.7 macrophages [2]; at 6 hours, FIG. 4B",dramatically suppressed
same,production of IL-1β (ELISA),RAW264.7 macrophages [3]; [6],dramatically reduced
same,production of IL-6 (ELISA),RAW264.7 macrophages [3]; [6],dramatically reduced
same,LPS-induced expression of RANTES (ELISA),"RAW264.7 macrophages [3]; at 6 hours or 24 hours, FIG. 4A",dramatically suppressed
same,inhibition of STAT3,[4],more significant than that of Pirfenidone
same,inhibition of TGF1β-induced alpha-SMA expression,[4],more significant than that of Pirfenidone
same,inhibition of TGF1β-induced fibronectin expression,[4],more significant than that of Pirfenidone
same,inhibition of smad3,[4],more significant than that of Pirfenidone
